Results as given in publication PMC7377239, “Cardiovascular Effects of Polychlorinated Biphenyls and Their Major Metabolites” (Environmental Health Perspectives, 2020).
Read-outs that look alike come from different tables or passages of the source.

Tested on: iCell cardiomyocytes (human iPSC-derived cardiomyocytes)
Assay: Intracellular Ca2+ flux / beating parameters in iCell cardiomyocytes (FLIPR tetra), 90 min or 24 h
Format: cell-based
Conditions: Homo sapiens, Cardiomyocyte, 0.00 µM = 100.00; for activity at 0.1 µM: 0.10 µM
Outline: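 PODs were defined as the concentration crossing one SD of the vehicle-control means (0.5% DMSO) on four-parameter logistic fits of Ca2+ trace metrics (peak height, frequency, peak-spacing CV, decay/rise ratio). Traces came from 100 s, 8 Hz FLIPR reads at 37 °C on calcium-dye-loaded iCell cardiomyocytes. Before reading, cells were treated for 90 min or 24 h from 5× chemical plates spanning 0.05–500 µM, in triplicate.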

[1] = 1.5 h, 90min, read-out: cm.amp.avg.90min
[2] = 1.5 h, 90min, read-out: cm.amp.cv.90min
[3] = 1.5 h, 90min, read-out: cm.bpm.90min
[4] = 1.5 h, 90min, read-out: cm.decay.rise.90min
[5] = 1.5 h, 90min, read-out: cm.spacing.cv.90min
[6] = 24 h, 24hrs, read-out: cm.amp.avg.24hrs
[7] = 24 h, 24hrs, read-out: cm.amp.cv.24hrs
[8] = 24 h, 24hrs, read-out: cm.bpm.24hrs
[9] = 24 h, 24hrs, read-out: cm.decay.rise.24hrs
[10] = 24 h, 24hrs, read-out: cm.spacing.cv.24hrs

SMILES: COc1cc(Cl)c(-c2cc(Cl)ccc2Cl)cc1Cl [4-OMe PCB52]
- activity at 0.01 µM [1]: 106%
- activity at 0.01 µM [2]: 122%
- activity at 0.01 µM [3]: 97.8%
- activity at 0.01 µM [4]: 97.5%
- activity at 0.01 µM [5]: 105%
- activity at 0.1 µM [1]: 106%
- activity at 0.1 µM [2]: 92.7%
- activity at 0.1 µM [3]: 102%
- activity at 0.1 µM [4]: 99.6%
- activity at 0.1 µM [5]: 88%
- activity at 1 µM [1]: 107%
- activity at 1 µM [2]: 113%
- activity at 1 µM [3]: 100%
- activity at 1 µM [4]: 97%
- activity at 1 µM [5]: 94.3%
- activity at 10 µM [1]: 83.3%
- activity at 10 µM [2]: 119%
- activity at 10 µM [3]: 120%
- activity at 10 µM [4]: 91.9%
- activity at 10 µM [5]: 108%
- activity at 100 µM [1]: 0%
- activity at 100 µM [2]: 0%
- activity at 100 µM [3]: 0%
- activity at 100 µM [4]: 0%
- activity at 100 µM [5]: 0%
- activity at 0.01 µM [6]: 89%
- activity at 0.01 µM [7]: 35.4%
- activity at 0.01 µM [8]: 54.4%
- activity at 0.01 µM [9]: 45.5%
- activity at 0.01 µM [10]: 56.2%
- activity at 0.1 µM [6]: 164%
- activity at 0.1 µM [7]: 69.5%
- activity at 0.1 µM [8]: 109%
- activity at 0.1 µM [9]: 100%
- activity at 0.1 µM [10]: 108%
- activity at 1 µM [6]: 166%
- activity at 1 µM [7]: 70.7%
- activity at 1 µM [8]: 95.5%
- activity at 1 µM [9]: 109%
- activity at 1 µM [10]: 102%
- activity at 10 µM [6]: 138%
- activity at 10 µM [7]: 81.2%
- activity at 10 µM [8]: 104%
- activity at 10 µM [9]: 107%
- activity at 10 µM [10]: 102%
- activity at 100 µM [6]: 0%
- activity at 100 µM [7]: 0%
- activity at 100 µM [8]: 0%
- activity at 100 µM [9]: 0%
- activity at 100 µM [10]: 0%
